Where two headings read alike, the source gives them in different places.
Columns and labels:
HCT116 cells = assay: Antiproliferation assay, Cell Titer Glo, 72 hours; type: cell-based
In short: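 HCT116 cells seeded at 750 cells/well in McCoy's 5A with 10% FBS and exposed to four-fold compound dilution series for 72 h at 37 °C, 5% CO2. Viability by CellTiter-Glo luminescence, quadruplicate; IC50 by non-linear regression.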

Cdk14/CycY = Cdk14/CycY (Homo sapiens (Human), UniProt O94921); assay: Lanthascreen Eu kinase binding assay for Cdk14/CycY with 30 minute pre-incubation; settings: 30 minute pre-incubation of kinase with compound; read-out: IC50 CDK14 binding by Lanthascreen
Method: Lanthascreen Eu kinase binding assays were conducted for Cdk14/CycY largely as performed in the commercial assay service by Life Technologies, but included a 30 minute pre-incubation step of the kinase with candidate compounds to facilitate covalent bond formation.

Cdk14 = Cdk14 (Homo sapiens (Human), UniProt O94921); assay: Cellular pull down with biotinylated probe, CDK14; type: cell-based; settings: HEK293 cells overexpressing Cdk14-flag, 4 hours treatment; some cells print Y or N instead of a concentration;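 further: biotinylated probe used at 1 µM in lysates overnight at 4 °C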
Method: HEK293 cells overexpressing a Cdk14-flag fusion protein were treated with candidate compounds for 4 hours. Cells were washed with PBS, harvested and lysed in Pierce IP buffer with protease and phosphatase inhibitors (Roche). […] To enhance pulldown, lysates were incubated at room temperature for an additional 2 hours. […] Beads were then washed 3 times with Pierce IP buffer, then boiled at 95° C. for 5 minutes in 2× LDS+10% β-mercaptoethanol. Proteins of interest engaged by the biotinylated compound were then assessed using western blotting.

CDK16/CycY = CDK16/CycY (Homo sapiens (Human), UniProt Q00536); assay: Lanthascreen Eu kinase binding assay for CDK16/CycY
Method: Lanthascreen Eu kinase binding assays were conducted for CDK16/CycY at Life Technologies.

CDK2/CycA = CDK2/CycA (Homo sapiens (Human), UniProt P24941); assay: Z'LYTE kinase assay for CDK2/CycA at Km ATP; type: biochemical
[1] = read-out: IC50 CDK16 Lanthascreen binding
[2] = read-out: IC50 CDK2 Z′LYTE kinase assay

Sequence of CDK16/CycY (Q00536 whole entry): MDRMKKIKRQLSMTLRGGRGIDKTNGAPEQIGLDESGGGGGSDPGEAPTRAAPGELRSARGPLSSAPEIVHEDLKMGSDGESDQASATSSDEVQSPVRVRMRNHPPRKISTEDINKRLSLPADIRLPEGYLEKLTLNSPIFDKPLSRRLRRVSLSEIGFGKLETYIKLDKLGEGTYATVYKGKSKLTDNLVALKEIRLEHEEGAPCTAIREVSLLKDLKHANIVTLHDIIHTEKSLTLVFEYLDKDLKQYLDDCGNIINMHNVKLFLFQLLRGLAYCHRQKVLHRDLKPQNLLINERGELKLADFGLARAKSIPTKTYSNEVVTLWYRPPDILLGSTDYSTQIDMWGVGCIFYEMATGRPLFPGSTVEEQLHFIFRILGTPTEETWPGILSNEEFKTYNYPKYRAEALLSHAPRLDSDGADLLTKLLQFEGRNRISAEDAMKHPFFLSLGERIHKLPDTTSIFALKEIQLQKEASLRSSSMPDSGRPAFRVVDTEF
Sequence of CDK16/CycY (Q8ND76 whole entry partner): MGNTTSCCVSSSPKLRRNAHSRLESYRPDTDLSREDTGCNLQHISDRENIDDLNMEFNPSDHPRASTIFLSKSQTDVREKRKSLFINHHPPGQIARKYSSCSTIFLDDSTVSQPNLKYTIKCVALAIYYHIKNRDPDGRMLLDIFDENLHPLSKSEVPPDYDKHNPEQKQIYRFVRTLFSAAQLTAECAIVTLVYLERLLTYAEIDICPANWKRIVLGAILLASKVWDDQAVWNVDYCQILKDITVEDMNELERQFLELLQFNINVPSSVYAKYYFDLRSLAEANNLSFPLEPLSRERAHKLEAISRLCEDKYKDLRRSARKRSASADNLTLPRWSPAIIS
Sequence of Cdk14/CycY (O94921 whole entry): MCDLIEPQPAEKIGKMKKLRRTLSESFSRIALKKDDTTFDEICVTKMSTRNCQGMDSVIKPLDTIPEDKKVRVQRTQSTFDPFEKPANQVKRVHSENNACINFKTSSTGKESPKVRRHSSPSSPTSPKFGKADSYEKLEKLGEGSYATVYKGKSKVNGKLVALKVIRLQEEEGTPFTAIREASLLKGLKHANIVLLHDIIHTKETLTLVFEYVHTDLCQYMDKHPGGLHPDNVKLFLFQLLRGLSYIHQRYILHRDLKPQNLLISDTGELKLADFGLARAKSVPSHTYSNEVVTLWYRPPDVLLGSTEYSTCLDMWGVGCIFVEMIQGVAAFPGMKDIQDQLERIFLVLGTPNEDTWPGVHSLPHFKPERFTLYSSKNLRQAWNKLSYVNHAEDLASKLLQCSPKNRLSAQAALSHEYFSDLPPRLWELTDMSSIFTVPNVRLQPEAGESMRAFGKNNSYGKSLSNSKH
Sequence of Cdk14/CycY (Q8ND76 whole entry partner): as the sequence (Q8ND76 whole entry partner) above
Sequence of Cdk14 (O94921 whole entry, the tested form may be a part): as the sequence (O94921 whole entry) above

| IC50 (HCT116 cells; Homo sapiens, HCT-116, 72 h) [nM] | IC50 (Cdk14/CycY) [nM] | Cellular Potency by Pulldown (Cdk14) [nM] | IC50 (CDK16/CycY; [1]) [nM] | IC50 (CDK2/CycA; [2]) [nM] | IC50 (CDK16/CycY; read-out: CDK16 IC50) [nM] | IC50 (HCT116 cells) [nM] | IC50 (CDK2/CycA; read-out: CDK2 IC50) [nM] | Compound |
| --- | --- | --- | --- | --- | --- | --- | --- | --- |
| 3040 | > 1000 | – | 404 | 439 | – | – | – | CN(C)C/C=C/C(=O)Nc1cccc(S(=O)(=O)N2CCC(NC(=O)c3nscc3NC(=O)c3c(Cl)cccc3Cl)CC2)c1 [FMF-04-089-2, (E)-4-(2,6-dichlorobenzamido)-N-(1-((3-(4-(dimethylamino)but-2-enamido)phenyl)sulfonyl)piperidin-4-yl)isothiazole-3-carboxamide] |
| 524 | – | – | 2.3 | 4.5 | 2.3 | 524 | 4.5 | COc1cccc(Cl)c1C(=O)Nc1c[nH]nc1C(=O)NC1CCN(S(=O)(=O)c2cccc(NC(=O)/C=C/CN(C)C)c2)CC1 [FMF-04-107-2, (E)-4-(2-chloro-6-methoxybenzamido)-N-(1-((3-(4-(dimethylamino)but-2-enamido)phenyl)sulfonyl)piperidin-4-yl)-1H-pyrazole-3-carboxamide] |
| 123 | – | – | 29.4 | 19.6 | – | 173 | – | CCC(=O)Nc1cccc(CN2CCC(NC(=O)c3n[nH]cc3NC(=O)c3c(Cl)cccc3Cl)CC2)c1 [FMF-04-172-2, 4-(2,6-dichlorobenzamido)-N-(1-(3-propionamidobenzyl)piperidin-4-yl)-1H-pyrazole-3-carboxamide] |
| > 10000 | > 1000 | – | 124 | 125 | – | – | – | Cc1[nH]nc(C(=O)NC2CCN(S(=O)(=O)c3cccc(NC(=O)/C=C/CN(C)C)c3)CC2)c1NC(=O)c1c(Cl)cccc1Cl [FMF-04-181-2, (E)-4-(2,6-dichlorobenzamido)-N-(1-((3-(4-(dimethylamino)but-2-enamido)phenyl)sulfonyl)piperidin-4-yl)-5-methyl-1H-pyrazole-3-carboxamide] |
| < 1 | 0.4 | 100 | – | – | – | – | – | C=CC(=O)Nc1cccc(S(=O)(=O)N2CCC(NC(=O)c3n[nH]cc3NC(=O)c3c(Cl)ccc(OC)c3Cl)CC2)c1 [FMF-04-184-1, N-(1-((3-acrylamidophenyl)sulfonyl)piperidin-4-yl)-4-(2,6-dichloro-3-methoxybenzamido)-1H-pyrazole-3-carboxamide] |
| 440 | 3 | – | 9.8 | 2.8 | – | – | – | CN(C)C/C=C/C(=O)Nc1cccc(S(=O)(=O)N2CCC(NC(=O)c3n[nH]cc3NC(=O)c3ccccc3)CC2)c1 [FMF-05-027-2, (E)-4-benzamido-N-(1-((3-(4-(dimethylamino)but-2-enamido)phenyl)sulfonyl)piperidin-4-yl)-1H-pyrazole-3-carboxamide] |
| 115 | – | – | 8.2 | 36 | 8.2 | – | 36 | COc1cccc(Cl)c1C(=O)Nc1c[nH]nc1C(=O)NC1CCN(Cc2cccc(NC(=O)/C=C/CN(C)C)c2)CC1 [FMF-05-032-1, (E)-4-(2-chloro-6-methoxybenzamido)-N-(1-(3-(4-(dimethylamino)but-2-enamido)benzyl)piperidin-4-yl)-1H-pyrazole-3-carboxamide] |
| 172 | – | – | 3.4 | 3 | – | – | – | CCC(=O)Nc1cccc(S(=O)(=O)N2CCC(NC(=O)c3n[nH]cc3NC(=O)c3c(Cl)cccc3OC)CC2)c1 [FMF-05-033-1, 4-(2-chloro-6-methoxybenzamido)-N-(1-((3-propionamidophenyl)sulfonyl)piperidin-4-yl)-1H-pyrazole-3-carboxamide] |
| 395 | 14 | – | 17 | 5.71 | – | – | – | COc1ccccc1CC(=O)Nc1c[nH]nc1C(=O)NC1CCN(S(=O)(=O)c2cccc(NC(=O)/C=C/CN(C)C)c2)CC1 [FMF-05-117-1, (E)-N-(1-((3-(4-(dimethylamino)but-2-enamido)phenyl)sulfonyl)piperidin-4-yl)-4-(2-(2-methoxyphenyl)acetamido)-1H-pyrazole-3-carboxamide] |
| 4110 | 49.5 | – | 11.3 | 24.6 | – | – | – | COc1cccc(OC)c1C(=O)Nc1c[nH]nc1C(=O)NC1CCN(S(=O)(=O)c2cccc(NC(=O)/C=C/CN(C)C)c2)CC1 [FMF-05-119-1, (E)-4-(2,6-dimethoxybenzamido)-N-(1-((3-(4-(dimethylamino)but-2-enamido)phenyl)sulfonyl)piperidin-4-yl)-1H-pyrazole-3-carboxamide] |

Continued, molecule first:

| Compound | IC50 (HCT116 cells; Homo sapiens, HCT-116, 72 h) [nM] | IC50 (Cdk14/CycY) [nM] | Cellular Potency by Pulldown (Cdk14) [nM] | IC50 (CDK16/CycY; [1]) [nM] | IC50 (CDK2/CycA; [2]) [nM] | IC50 (CDK16/CycY; read-out: CDK16 IC50) [nM] | IC50 (HCT116 cells) [nM] | IC50 (CDK2/CycA; read-out: CDK2 IC50) [nM] |
| --- | --- | --- | --- | --- | --- | --- | --- | --- |
| C=CC(=O)Nc1cccc(C(=O)Nc2ccc(NC(=O)c3n[nH]cc3NC(=O)c3c(Cl)cccc3Cl)cc2)c1 [FMF-03-205-1, N-(4-(3-acrylamidobenzamido)phenyl)-4-(2,6-dichlorobenzamido)-1H-pyrazole-3-carboxamide] | 6 | 1010 | 500 | – | – | – | – | – |
| CN(C)C/C=C/C(=O)Nc1cccc(S(=O)(=O)N2CCC(N(C)C(=O)c3n[nH]cc3NC(=O)c3c(Cl)cccc3Cl)CC2)c1 [FMF-04-086-2, (E)-4-(2,6-dichlorobenzamido)-N-(1-((3-(4-(dimethylamino)but-2-enamido)phenyl)sulfonyl)piperidin-4-yl)-N-methyl-1H-pyrazole-3-carboxamide] | > 10000 | > 1000 | – | 894 | 664 | – | – | – |
| CN(C)C/C=C/C(=O)Nc1cccc(S(=O)(=O)N2CCC(NC(=O)c3c(NC(=O)c4c(Cl)cccc4Cl)cnn3C)CC2)c1 [FMF-04-121-1, (E)-4-(2,6-dichlorobenzamido)-N-(1-((3-(4-(dimethylamino)but-2-enamido)phenyl)sulfonyl)piperidin-4-yl)-1-methyl-1H-pyrazole-5-carboxamide] | 2860 | 486 | – | 6700 | > 10000 | – | – | – |
| CN(C)C/C=C/C(=O)Nc1cccc(S(=O)(=O)N2CCC(NC(=O)c3n[nH]c(-c4ccccc4)c3NC(=O)c3c(Cl)cccc3Cl)CC2)c1 [FMF-04-197-1, (E)-4-(2,6-dichlorobenzamido)-N-(1-((3-(4-(dimethylamino)but-2-enamido)phenyl)sulfonyl)piperidin-4-yl)-5-phenyl-1H-pyrazole-3-carboxamide] | > 10000 | 28 | – | 5900 | 5900 | – | – | – |
| CC(C)c1[nH]nc(C(=O)NC2CCN(S(=O)(=O)c3cccc(NC(=O)/C=C/CN(C)C)c3)CC2)c1NC(=O)c1c(Cl)cccc1Cl [FMF-04-199-1, (E)-4-(2,6-dichlorobenzamido)-N-(1-((3-(4-(dimethylamino)but-2-enamido)phenyl)sulfonyl)piperidin-4-yl)-5-isopropyl-1H-pyrazole-3-carboxamide] | > 10000 | 1000 | – | 8900 | > 10000 | – | – | – |
| CN(C)C/C=C/C(=O)Nc1cccc(CN2CCC(NC(=O)c3n[nH]cc3NC(=O)c3c(F)cc(F)cc3F)CC2)c1 [FMF-04-200-2, (E)-N-(1-(3-(4-(dimethylamino)but-2-enamido)benzyl)piperidin-4-yl)-4-(2,4,6-trifluorobenzamido)-1H-pyrazole-3-carboxamide] | 293 | 17 | – | 110 | 508 | – | – | – |
| C=CC(=O)Nc1ccc(CNC(=O)c2n[nH]cc2NC(=O)c2c(Cl)cccc2Cl)cc1 [FMF-05-064-1, N-(4-acrylamidobenzyl)-4-(2,6-dichlorobenzamido)-1H-pyrazole-3-carboxamide] | 117 | 1700 | – | 478 | 15 | – | – | – |
| CN(C)C/C=C/C(=O)Nc1ccc(N2CCC(NC(=O)c3n[nH]cc3NC(=O)c3c(Cl)cccc3Cl)CC2)cc1 [FMF-05-073-2, (E)-4-(2,6-dichlorobenzamido)-N-(1-(4-(4-(dimethylamino)but-2-enamido)phenyl)piperidin-4-yl)-1H-pyrazole-3-carboxamide] | 541 | 45 | – | 27.7 | 17 | – | – | – |
| CN(C)C/C=C/C(=O)Nc1cccc(N2CCC(NC(=O)c3n[nH]cc3NC(=O)c3c(Cl)cccc3Cl)CC2)c1 [FMF-05-085-2, (E)-4-(2,6-dichlorobenzamido)-N-(1-(3-(4-(dimethylamino)but-2-enamido)phenyl)piperidin-4-yl)-1H-pyrazole-3-carboxamide] | 427 | 27 | – | 74.4 | 20 | – | – | – |
| CN(C)C/C=C/C(=O)Nc1cccc(S(=O)(=O)N2CCC(NC(=O)c3n[nH]cc3NC(=O)C3CCC(F)(F)CC3)CC2)c1 [FMF-05-116-1, (E)-4-(4,4-difluorocyclohexane-1-carboxamido)-N-(1-((3-(4-(dimethylamino)but-2-enamido)phenyl)sulfonyl)piperidin-4-yl)-1H-pyrazole-3-carboxamide] | 8200 | – | – | 140 | 51.5 | – | – | – |
| COc1cccc(F)c1C(=O)Nc1c[nH]nc1C(=O)NC1CCN(Cc2cccc(NC(=O)/C=C/CN(C)C)c2)CC1 [IHK-01-013-2, (E)-N-(1-(3-(4-(dimethylamino)but-2-enamido)benzyl)piperidin-4-yl)-4-(2-fluoro-6-methoxybenzamido)-1H-pyrazole-3-carboxamide] | 77 | 4.2 | – | 7.4 | 53 | – | – | – |
